Laboratory results from patent US8022206B2 (OSI Pharmaceuticals, LLC, priority 2008, dated 2011).

Experiments:
RON (human) = RON (human) (Homo sapiens, UniProt Q04912); assay: RON (human) AlphaScreen kinase assay, Km of ATP; assay type: biochemical; conditions: AlphaScreen, Km of ATP; read-out: RON biochemical IC50
How it was run: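 Detection used PT66 AlphaScreen beads added in Tris pH 7.5/NaCl/EDTA/BSA buffer, read after 1 h incubation. Vehicle-only DMSO wells served as controls.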

MET (human) = MET (human) (Homo sapiens, UniProt P08581); assay: MET (human) AlphaScreen kinase assay, Km of ATP; assay type: biochemical; conditions: AlphaScreen, Km of ATP; read-out: Met biochemical IC50
MET (human), sequence (P08581 25-1390): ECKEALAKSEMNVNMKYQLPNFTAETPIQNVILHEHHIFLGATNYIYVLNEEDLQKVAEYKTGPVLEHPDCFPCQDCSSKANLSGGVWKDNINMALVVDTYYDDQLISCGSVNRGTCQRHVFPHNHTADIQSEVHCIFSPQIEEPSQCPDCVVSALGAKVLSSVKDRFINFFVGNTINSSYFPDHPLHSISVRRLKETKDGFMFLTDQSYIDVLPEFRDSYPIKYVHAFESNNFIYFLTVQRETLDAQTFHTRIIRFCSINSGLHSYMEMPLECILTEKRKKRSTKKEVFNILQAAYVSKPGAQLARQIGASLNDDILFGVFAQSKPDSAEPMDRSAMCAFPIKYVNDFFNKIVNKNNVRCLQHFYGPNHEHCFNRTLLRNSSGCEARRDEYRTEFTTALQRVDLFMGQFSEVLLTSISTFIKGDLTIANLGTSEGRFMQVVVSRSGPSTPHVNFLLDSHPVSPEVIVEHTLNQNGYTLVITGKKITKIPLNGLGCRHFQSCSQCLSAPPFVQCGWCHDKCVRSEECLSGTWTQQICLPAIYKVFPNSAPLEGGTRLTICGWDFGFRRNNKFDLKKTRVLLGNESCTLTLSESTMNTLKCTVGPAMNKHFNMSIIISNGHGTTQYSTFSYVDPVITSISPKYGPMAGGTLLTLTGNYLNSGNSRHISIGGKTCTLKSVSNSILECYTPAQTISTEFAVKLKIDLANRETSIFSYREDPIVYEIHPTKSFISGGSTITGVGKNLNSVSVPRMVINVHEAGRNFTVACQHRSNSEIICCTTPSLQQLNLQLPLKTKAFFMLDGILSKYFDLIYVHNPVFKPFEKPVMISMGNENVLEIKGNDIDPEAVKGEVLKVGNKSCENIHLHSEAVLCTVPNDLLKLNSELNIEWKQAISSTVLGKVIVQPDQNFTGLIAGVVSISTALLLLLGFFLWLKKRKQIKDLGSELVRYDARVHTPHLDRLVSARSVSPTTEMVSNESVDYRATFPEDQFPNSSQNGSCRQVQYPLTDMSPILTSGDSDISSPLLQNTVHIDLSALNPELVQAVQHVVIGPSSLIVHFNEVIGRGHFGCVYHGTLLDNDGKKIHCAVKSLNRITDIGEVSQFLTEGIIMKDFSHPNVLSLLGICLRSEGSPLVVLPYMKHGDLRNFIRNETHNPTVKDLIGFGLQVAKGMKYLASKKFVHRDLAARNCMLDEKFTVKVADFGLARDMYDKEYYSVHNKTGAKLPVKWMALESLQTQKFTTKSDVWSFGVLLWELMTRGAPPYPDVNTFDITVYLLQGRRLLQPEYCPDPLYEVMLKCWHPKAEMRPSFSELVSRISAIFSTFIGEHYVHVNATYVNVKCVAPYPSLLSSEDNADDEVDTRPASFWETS
How it was run: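 Human MET at lot-optimised concentration in 50 mM Tris pH 7.4 buffer with 1 mM DTT, compound at 1% DMSO final; enzyme starts the reaction, 60 min at RT.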

RON (human), sequence (Q04912 25-1400): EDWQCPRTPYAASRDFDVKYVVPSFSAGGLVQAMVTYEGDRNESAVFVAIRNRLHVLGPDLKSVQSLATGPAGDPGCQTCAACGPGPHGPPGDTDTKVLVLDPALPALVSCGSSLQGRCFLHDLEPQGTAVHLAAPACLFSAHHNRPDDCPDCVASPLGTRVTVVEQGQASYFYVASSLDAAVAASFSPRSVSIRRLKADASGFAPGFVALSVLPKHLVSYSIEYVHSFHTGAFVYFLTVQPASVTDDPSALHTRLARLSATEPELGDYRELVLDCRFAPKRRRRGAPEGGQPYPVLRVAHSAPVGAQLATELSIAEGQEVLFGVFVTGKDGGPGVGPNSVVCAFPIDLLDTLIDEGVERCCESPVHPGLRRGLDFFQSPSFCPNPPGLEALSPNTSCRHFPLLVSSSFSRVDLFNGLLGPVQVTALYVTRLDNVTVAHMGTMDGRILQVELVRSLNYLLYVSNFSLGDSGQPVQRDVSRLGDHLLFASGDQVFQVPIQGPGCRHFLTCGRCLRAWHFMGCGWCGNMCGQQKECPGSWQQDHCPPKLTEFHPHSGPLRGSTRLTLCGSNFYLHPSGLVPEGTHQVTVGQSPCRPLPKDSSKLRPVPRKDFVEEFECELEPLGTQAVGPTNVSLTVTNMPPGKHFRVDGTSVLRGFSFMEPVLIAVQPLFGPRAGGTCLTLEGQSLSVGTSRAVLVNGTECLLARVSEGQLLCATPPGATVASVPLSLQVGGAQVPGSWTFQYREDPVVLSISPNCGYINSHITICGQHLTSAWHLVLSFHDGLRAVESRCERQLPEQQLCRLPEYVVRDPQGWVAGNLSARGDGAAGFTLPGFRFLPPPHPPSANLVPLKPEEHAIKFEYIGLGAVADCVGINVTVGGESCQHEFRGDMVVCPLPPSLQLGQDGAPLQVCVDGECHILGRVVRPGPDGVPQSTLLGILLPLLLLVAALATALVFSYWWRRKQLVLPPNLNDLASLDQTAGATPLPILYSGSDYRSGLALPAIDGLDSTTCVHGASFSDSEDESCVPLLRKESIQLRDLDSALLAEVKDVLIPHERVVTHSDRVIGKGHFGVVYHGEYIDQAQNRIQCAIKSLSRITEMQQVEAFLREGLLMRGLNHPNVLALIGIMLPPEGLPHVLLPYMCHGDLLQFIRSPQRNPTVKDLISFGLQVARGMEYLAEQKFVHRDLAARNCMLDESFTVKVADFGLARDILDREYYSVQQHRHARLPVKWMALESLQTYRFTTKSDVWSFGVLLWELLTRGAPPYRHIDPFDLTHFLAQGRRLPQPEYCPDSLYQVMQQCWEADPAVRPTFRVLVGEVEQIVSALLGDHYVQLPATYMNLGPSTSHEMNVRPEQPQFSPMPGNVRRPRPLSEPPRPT

| SMILES | IC50 (RON (human)) | IC50 (MET (human)) |
| --- | --- | --- |
| C[C@@H](Oc1c(N)ncc2c(-c3ccc(C(=O)NCCN4CCCC4)cc3)coc12)c1c(Cl)ccc(F)c1Cl [Example 101, 4-{6-Amino-7-[(R)-1-(2,6-dichloro-3-fluorophenyl)ethoxy]-furo[3,2-c]pyridin-3-yl}-N-(2-pyrrolidin-1-ylethyl)benzamide] | 500 to 5000 nM | < 500 nM |
| C[C@@H](Oc1c(N)ncc2c(C3=CCN(C(=O)Oc4ccccc4)CC3)coc12)c1c(Cl)ccc(F)c1Cl [Example 55, 4-{6-Amino-7-[(R)-1-(2,6-dichloro-3-fluorophenyl)-ethoxy]-furo[3,2-c]pyridin-3-yl}-3,6-dihydro-2H-pyridine-1-carboxylic acid phenyl ester] | 500 to 5000 nM | < 500 nM |
| Cc1cccc(Cl)c1C(C)Oc1c(N)ncc2c(-c3cnn(C4CCNCC4)c3)coc12 (centres unmarked) [Example 375, 7-[1-(2-Chloro-6-methylphenyl)ethoxy]-3-(1-piperidin-4-yl-1H-pyrazol-4-yl)furo[3,2-c]pyridin-6-ylamine] | 500 to 5000 nM | < 500 nM |
| C[C@@H]1CN(C(=O)N2CC=C(c3coc4c(O[C@H](C)c5c(Cl)ccc(F)c5Cl)c(N)ncc34)CC2)C[C@H](C)O1 [Example 30, (4-{6-Amino-7-[(R)-1-(2,6-dichloro-3-fluorophenyl)-ethoxy]-furo[3,2-c]pyridin-3-yl}-3,6-dihydro-2H-pyridin-1-yl)-((2R,6S)-2,6-dimethylmorpholin-4-yl)-methanone] | 500 to 5000 nM | 500 to 5000 nM |
| C[C@@H](Oc1c(N)ncc2c(C3=CCN(S(C)(=O)=O)CC3)coc12)c1c(Cl)ccc(F)c1Cl [Example 46, 7-[(R)-1-(2,6-Dichloro-3-fluorophenyl)-ethoxy]-3-(1-methanesulfonyl-1,2,3,6-tetrahydropyridin-4-yl)-furo[3,2-c]pyridin-6-ylamine] | 500 to 5000 nM | < 500 nM |
| C[C@@H](Oc1c(N)ncc2c(C3=CCN(C(=O)[C@H](O)C(F)(F)F)CC3)coc12)c1c(Cl)ccc(F)c1Cl [Example 269, (2S)-1-[4-{6-Amino-7-[(1R)-1-(2,6-dichloro-3-fluorophenyl)ethoxy]furo[3,2-c]pyridin-3-yl}-3,6-dihydropyridin-1(2H)-yl]-3,3,3-trifluoro-2-hydroxypropan-1-one] | 500 to 5000 nM | 500 to 5000 nM |
| C[C@@H](Oc1c(N)ncc2c(C3=CCN(C(=O)C4(N)CC4)CC3)coc12)c1c(Cl)ccc(F)c1Cl [Example 23, (1-Aminocyclopropyl)-(4-{6-amino-7-[(R)-1-(2,6-dichloro-3-fluorophenyl)-ethoxy]-furo[3,2-c]pyridin-3-yl}-3,6-dihydro-2H-pyridin-1-yl)-methanone] | 500 to 5000 nM | 500 to 5000 nM |
| C[C@@H](Oc1c(N)ncc2c(C3=CCN(S(=O)(=O)c4ccccc4)CC3)coc12)c1c(Cl)ccc(F)c1Cl [Example 49, 3-(1-Benzenesulfonyl-1,2,3,6-tetrahydropyridin-4-yl)-7-[(R)-1-(2,6-dichloro-3-fluorophenyl)-ethoxy]-furo[3,2-c]pyridin-6-ylamine] | 500 to 5000 nM | 500 to 5000 nM |
| N#CCc1ccccc1COc1c(N)ncc2c(-c3cnn(C4CCNCC4)c3)coc12 [Example 433, {2-[6-Amino-3-(1-piperidin-4-yl-1H-pyrazol-4-yl)furo[3,2-c]pyridin-7-yloxymethyl]phenyl}acetonitrile] | 500 to 5000 nM | 500 to 5000 nM |
| C[C@@H](Oc1c(N)ncc2c(-c3ccc(C(=O)Nc4nccs4)cc3)coc12)c1c(Cl)ccc(F)c1Cl [Example 109, 4-{6-Amino-7-[(R)-1-(2,6-dichloro-3-fluorophenyl)ethoxy]-furo[3,2-c]pyridin-3-yl}-N-thiazol-2-yl-benzamide] | 500 to 5000 nM | 500 to 5000 nM |
| C[C@@H](Oc1c(N)ncc2c(C3=CCSCC3)coc12)c1c(Cl)ccc(F)c1Cl [Example 139, 7-[(R)-1-(2,6-Dichloro-3-fluorophenyl)-ethoxy]-3-(3,6-dihydro-2H-thiopyran-4-yl)-furo[3,2-c]pyridin-6-ylamine] | 500 to 5000 nM | < 500 nM |
| CC(Oc1c(N)ncc2c(-c3cnn(C4CCNCC4)c3)coc12)c1cccc(-c2cn[nH]c2)c1 (centres unmarked) [Example 447] | 500 to 5000 nM | 500 to 5000 nM |
| CC(Oc1c(N)ncc2c(-c3cnn(C4CCNCC4)c3)coc12)c1cccc(-c2ccc[nH]2)c1 (centres unmarked) [Example 445] | 500 to 5000 nM | 500 to 5000 nM |
| C[C@@H](Oc1c(N)ncc2c(C3=CCN(C(=O)c4ccccc4)CC3)coc12)c1c(Cl)ccc(F)c1Cl [Example 11, (4-{6-Amino-7-[(R)-1-(2,6-dichloro-3-fluorophenyl)-ethoxy]-furo[3,2-c]pyridin-3-yl}-3,6-dihydro-2H-pyridin-1-yl)-phenylmethanone] | 500 to 5000 nM | 500 to 5000 nM |
| C[C@@H](Oc1c(N)ncc2c(-c3ccc(S(C)(=O)=O)cc3)coc12)c1c(Cl)ccc(F)c1Cl [Example 62, 7-[(R)-1-(2,6-Dichloro-3-fluorophenyl)ethoxy]-3-(4-methane-sulfonylphenyl)furo[3,2-c]pyridin-6-ylamine] | 500 to 5000 nM | 500 to 5000 nM |
| C[C@@H](Oc1c(N)ncc2c(C(=O)NCCN)coc12)c1c(Cl)ccc(F)c1Cl [Example 193, 6-Amino-7-[(R)-1-(2,6-dichloro-3-fluorophenyl)ethoxy]furo[3,2-c]pyridine-3-carboxylic acid (3-aminoethyl)amide] | 500 to 5000 nM | < 500 nM |
| Nc1ncc2ccoc2c1OCc1ccc(NC(=O)c2cccn(-c3ccc(F)cc3)c2=O)cc1 [Example 461, 1-(4-Fluorophenyl)-2-oxo-1,2-dihydropyridine-3-carboxylic acid [4-(6-aminofuro[3,2-c]pyridin-7-yloxymethyl)phenyl]amide] | > 20000 nM | 500 to 5000 nM |
| Nc1ncc2c(-c3cnn(C4CCNCC4)c3)coc2c1OC1CCCc2c(F)cccc21 (centres unmarked) [Example 390, 7-(5-Fluoro-1,2,3,4-tetrahydronaphthalen-1-yloxy)-3-(1-piperidin-4-yl-1H-pyrazol-4-yl)furo[3,2-c]pyridin-6-ylamine] | < 500 nM | < 500 nM |
| C[C@@H](Oc1c(N)ncc2c(-c3ccnc(N4CCN(C)CC4)c3)coc12)c1c(Cl)ccc(F)c1Cl [Example 89, 7-[(R)-1-(2,6-Dichloro-3-fluorophenyl)ethoxy]-3-[2-(4-methylpiperazin-1-yl)pyridin-4-yl]-furo[3,2-c]pyridin-6-ylamine] | < 500 nM | < 500 nM |

Other lines, results leading:

| IC50 (RON (human)) | IC50 (MET (human)) | SMILES |
| --- | --- | --- |
| < 500 nM | < 500 nM | C[C@@H](Oc1c(N)ncc2c(-c3csc(CN4CCN(C)CC4)c3)coc12)c1c(Cl)ccc(F)c1Cl [Example 304, 7-[(R)-1-(2,6-Dichloro-3-fluorophenyl)ethoxy]-3-[5-(4-methyl-piperazin-1-ylmethyl)thiophen-3-yl]-furo[3,2-c]pyridin-6-ylamine] |
| < 500 nM | < 500 nM | C[C@@H](Oc1c(N)ncc2c(C3=CCN(C(=O)[C@H]4CCCCN4)CC3)coc12)c1c(Cl)ccc(F)c1Cl [Example 239, (4-{6-Amino-7-[(R)-1-(2,6-dichloro-3-fluorophenyl)ethoxy]-furo[3,2-c]pyridin-3-yl}-3,6-dihydro-2H-pyridin-1-yl)-(R)-piperidin-2-ylmethanone] |
| < 500 nM | < 500 nM | C[C@@H](Oc1c(N)ncc2c(C3=CCN(C(=O)[C@@H]4CCCNC4)CC3)coc12)c1c(Cl)ccc(F)c1Cl [Example 241, (4-{6-Amino-7-[(R)-1-(2,6-dichloro-3-fluorophenyl)ethoxy]-furo[3,2-c]pyridin-3-yl}-3,6-dihydro-2H-pyridin-1-yl)-(R)-piperidin-3-ylmethanone] |
| < 500 nM | < 500 nM | CC(Oc1c(N)ncc2c(-c3cnn(C4CCNCC4)c3)coc12)c1c(Cl)c(F)cc(OC2CCNCC2)c1Cl (centres unmarked) [Example 158, 7-{1-[2,6-Dichloro-3-fluoro-5-(piperidin-4-yloxy)phenyl]ethoxy}-3-[1-(piperidin-4-yl)-1H-pyrazol-4-yl]furo[3,2-c]pyridin-6-amine] |
| < 500 nM | < 500 nM | C[C@@H](Oc1c(N)ncc2c(-c3ccc(N4CCN(C)CC4)nc3)coc12)c1c(Cl)ccc(F)c1Cl [Example 88, 7-[(R)-1-(2,6-Dichloro-3-fluorophenyl)ethoxy]-3-[6-(4-methylpiperazin-1-yl)pyridin-3-yl]furo[3,2-c]pyridin-6-ylamine] |
| < 500 nM | < 500 nM | C[C@@H](N)C(=O)N1CC=C(c2coc3c(O[C@H](C)c4c(Cl)ccc(F)c4Cl)c(N)ncc23)CC1 [Example 252, (2R)-2-Amino-1-[4-{6-amino-7-[(1R)-1-(2,6-dichloro-3-fluoro-phenyl)ethoxy]furo[3,2-c]pyridin-3-yl}-3,6-dihydropyridin-1(2H)-yl]propan-1-one] |
| < 500 nM | < 500 nM | C[C@@H](Oc1c(N)ncc2c(-c3ccc(C(=O)N4CCN(CCO)CC4)cc3)coc12)c1c(Cl)ccc(F)c1Cl [Example 99, (4-{6-Amino-7-[(R)-1-(2,6-dichloro-3-fluorophenyl)ethoxy]-furo[3,2-c]pyridin-3-yl}phenyl)-[4-(2-hydroxyethyl)piperazin-1-yl]methanone] |
| < 500 nM | 500 to 5000 nM | CC(C)[C@H](O)C(=O)N1CC=C(c2coc3c(O[C@H](C)c4c(Cl)ccc(F)c4Cl)c(N)ncc23)CC1 [Example 267, (2S)-1-[4-{6-Amino-7-[(1R)-1-(2,6-dichloro-3-fluorophenyl)ethoxy]furo[3,2-c]pyridin-3-yl}-3,6-dihydropyridin-1(2H)-yl]-2-hydroxy-3-methylbutan-1-one] |
| < 500 nM | < 500 nM | C[C@@H](Oc1c(N)ncc2c(C3=CCN(C(=O)[C@@H]4C[C@@H](F)CN4)CC3)coc12)c1c(Cl)ccc(F)c1Cl [Example 235, (4-{6-Amino-7-[(R)-1-(2,6-dichloro-3-fluorophenyl)ethoxy]-furo[3,2-c]pyridin-3-yl}-3,6-dihydro-2H-pyridin-1-yl)-((2S,4R)-4-fluoropyrrolidin-2-yl)-methanone] |
